This test concerns RS4; 11 with G101V mutation. Briefly: In vitro anti-proliferation assay (ATPlite luminescence) in BCL-2-dependent ALL cell line RS4;11 with G101V mutation. It is filed as cell-based. The settings on record: cellular anti-proliferative IC50, about 72 hours, medium with 10% FBS, ATPlite; read-out: RS411-G101V IC50. In outline:
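IC50 came from luminescent ATP quantification (ATPlite) following cell lysis. Compound dose ranges were applied for roughly 72 h to about 1×10^4 G101V-mutant RS4;11 cells per well, in 10% FBS medium.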

Twelve compounds from US20250114374A1, “BCL-2 INHIBITORS” (Newave Pharmaceutical Inc., priority 2021, published 2025) can be followed below.

As to `COc1cc(CN2CCN(C3CC4(CCN(c5ccc(C(=O)NS(=O)(=O)c6cc7c(c([N+](=O)[O-])c6)N[C@@H](C6CCC(C)(O)CC6)CO7)c(N6c7cc8cc[nH]c8nc7O[C@H]7COCC[C@@H]76)c5)CC4)C3)[C@@H](c3ccccc3OC(C)C)C2)cnc1N1CCOCC1` (stereo partly drawn) [Example 130, 2-[(3R,8S)-2,5-dioxa-9,15,17-triazatetracyclo[8.7.0.0^{3,8}.0^{12,16}]heptadeca-1(10),11,13,16-tetraen-9-yl]-4-{2-[(2S)-2-(2-isopropoxyphenyl)-4-{[5-methoxy-6-(morpholin-4-yl)pyridin-3-yl]methyl}piperazin-1-yl]-7-azaspiro[3.5]nonan-7-yl}-N-[(3S)-5-nitro-3-[(1r,4S)-4-hydroxy-4-methylcyclohexyl]-3,4-dihydro-2H-1,4-benzoxazin-7-ylsulfonyl]benzamide], the IC50 (commonly the concentration that inhibits the measured activity by half) was 13.1 nM.
For the compound `COc1cc(CN2CCN(C3CC4(CCN(c5ccc(C(=O)NS(=O)(=O)c6ccc(NCC7CCOCC7)c([N+](=O)[O-])c6)c(N6c7cc8cc[nH]c8nc7O[C@H]7COCC[C@@H]76)c5)CC4)C3)[C@@H](c3ccccc3OC(C)C)C2)cnc1N1CCOCC1` [Example 131, 2-[(3R,8S)-2,5-dioxa-9,15,17-triazatetracyclo[8.7.0.0^{3,8}.0^{12,16}]heptadeca-1(10),11,13,16-tetraen-9-yl]-4-{2-[(2S)-2-(2-isopropoxyphenyl)-4-{[5-methoxy-6-(morpholin-4-yl)pyridin-3-yl]methyl}piperazin-1-yl]-7-azaspiro[3.5]nonan-7-yl}-N-{3-nitro-4-[(oxan-4-ylmethyl)amino]benzenesulfonyl}benzamide], the IC50 is 34.6 nM.
The result for `COc1cc(CN2CCN(C3CC4(CCN(c5ccc(C(=O)NS(=O)(=O)c6ccc(NCC7CCOCC7)c([N+](=O)[O-])c6)c(N6c7cc8cc[nH]c8nc7O[C@H]7COCC[C@@H]76)c5)CC4)C3)[C@@H](c3ccccc3OC(C)C)C2)cnc1N1CCOCC1` [Example 132, 2-[(3R,8S)-2,5-dioxa-9,15,17-triazatetracyclo[8.7.0.0^{3,8}.0^{12,16}]heptadeca-1(10),11,13,16-tetraen-9-yl]-4-{2-[(2S)-2-(2-isopropoxyphenyl)-4-{[5-methoxy-6-(morpholin-4-yl)pyridin-3-yl]methyl}piperazin-1-yl]-7-azaspiro[3.5]nonan-7-yl}-N-{3-nitro-4-[(oxan-4-ylmethyl)amino]benzenesulfonyl}benzamide] reads 32.2 nM.
The result for `COc1cc(CN2CCN(C3CC4(CCN(c5ccc(C(=O)NS(=O)(=O)c6ccc(NCC7CCOCC7)c([N+](=O)[O-])c6)c(N6c7cc8cc[nH]c8nc7O[C@H]7COCC[C@@H]76)c5)CC4)C3)[C@@H](c3ccccc3OC(C)C)C2)cnc1N1CCOCC1` [Example 133, 2-[(3R,8S)-2,5-dioxa-9,15,17-triazatetracyclo[8.7.0.0^{3,8}.0^{12,16}]heptadeca-1(10),11,13,16-tetraen-9-yl]-4-{2-[(2S)-2-(2-isopropoxyphenyl)-4-{[5-methoxy-6-(morpholin-4-yl)pyridin-3-yl]methyl}piperazin-1-yl]-7-azaspiro[3.5]nonan-7-yl}-N-{3-nitro-4-[(oxan-4-ylmethyl)amino]benzenesulfonyl}benzamide] reads 32.4 nM; that for `COc1cc(CN2CCN(C3CC4(CCN(c5ccc(C(=O)NS(=O)(=O)c6ccc(NCC7CCC(C)(O)CC7)c([N+](=O)[O-])c6)c(N6c7cc8cc[nH]c8nc7O[C@H]7COCC[C@@H]76)c5)CC4)C3)[C@@H](c3ccccc3OC(C)C)C2)cnc1C1CC1` (stereo partly drawn) [Example 134, 4-{2-[(2S)-4-[(6-cyclopropyl-5-methoxypyridin-3-yl)methyl]-2-(2-isopropoxyphenyl)piperazin-1-yl]-7-azaspiro[3.5]nonan-7-yl}-2-[(3R,8S)-2,5-dioxa-9,15,17-triazatetracyclo[8.7.0.0^{3,8}.0^{12,16}]heptadeca-1(10),11,13,16-tetraen-9-yl]-N-[3-nitro-4-({[(1r,4r)-4-hydroxy-4-methylcyclohexyl]methyl}amino)benzenesulfonyl]benzamide], 18.8 nM; that for `COc1cc(CN2CCN(C3CC4(CCN(c5ccc(C(=O)NS(=O)(=O)c6ccc(NCC7CCC(C)(O)CC7)c([N+](=O)[O-])c6)c(N6c7cc8cc[nH]c8nc7O[C@H]7COCC[C@@H]76)c5)CC4)C3)[C@@H](c3ccccc3OC(C)C)C2)cnc1C` (stereo partly drawn) [Example 135, 2-[(3R,8S)-2,5-dioxa-9,15,17-triazatetracyclo[8.7.0.0^{3,8}.0^{12,16}]heptadeca-1(10),11,13,16-tetraen-9-yl]-4-{2-[(2S)-2-(2-isopropoxyphenyl)-4-[(5-methoxy-6-methylpyridin-3-yl)methyl]piperazin-1-yl]-7-azaspiro[3.5]nonan-7-yl}-N-[3-nitro-4-({[(1r,4r)-4-hydroxy-4-methylcyclohexyl]methyl}amino)benzenesulfonyl]benzamide], 11.2 nM.
The result for `COc1ncc(CN2CCN(C3CC4(CCN(c5ccc(C(=O)NS(=O)(=O)c6ccc(NCC7CCC(C)(O)CC7)c([N+](=O)[O-])c6)c(N6c7cc8cc[nH]c8nc7O[C@H]7COCC[C@@H]76)c5)CC4)C3)[C@@H](c3ccccc3OC(C)C)C2)cc1C1CC1` (stereo partly drawn) [Example 136, 4-{2-[(2S)-4-[(5-cyclopropyl-6-methoxypyridin-3-yl)methyl]-2-(2-isopropoxyphenyl)piperazin-1-yl]-7-azaspiro[3.5]nonan-7-yl}-2-[(3R,8S)-2,5-dioxa-9,15,17-triazatetracyclo[8.7.0.0^{3,8}.0^{12,16}]heptadeca-1(10),11,13,16-tetraen-9-yl]-N-[3-nitro-4-({[(1r,4r)-4-hydroxy-4-methylcyclohexyl]methyl}amino)benzenesulfonyl]benzamide] reads 35.6 nM; that for `CC(C)Oc1ccccc1[C@H]1CN(Cc2cnc(N3CCOCC3)c(OC(C)C)c2)CCN1C1CC2(CCN(c3ccc(C(=O)NS(=O)(=O)c4ccc(NCC5CCC(C)(O)CC5)c([N+](=O)[O-])c4)c(N4c5cc6cc[nH]c6nc5O[C@H]5COCC[C@@H]54)c3)CC2)C1` (stereo partly drawn) [Example 137, 2-[(3R,8S)-2,5-dioxa-9,15,17-triazatetracyclo[8.7.0.0^{3,8}.0^{12,16}]heptadeca-1(10),11,13,16-tetraen-9-yl]-4-{2-[(2S)-4-{[5-isopropoxy-6-(morpholin-4-yl)pyridin-3-yl]methyl}-2-(2-isopropoxyphenyl)piperazin-1-yl]-7-azaspiro[3.5]nonan-7-yl}-N-[3-nitro-4-({[(1r,4r)-4-hydroxy-4-methylcyclohexyl]methyl}amino)benzenesulfonyl]benzamide], 41.5 nM; that for `COc1cc(CN2CCN(C3CC4(CCN(c5ccc(C(=O)NS(=O)(=O)c6ccc(NC[C@H]7CC[C@](C)(O)CC7)c([N+](=O)[O-])c6)c(N6c7cc8cc[nH]c8nc7O[C@H]7COCC[C@@H]76)c5)CC4)C3)[C@H](c3ccccc3C)C2)cnc1N1CCOC[C@@H]1C` [Example 138, N-((4-((((1r,4r)-4-hydroxy-4-methylcyclohexyl)methyl)amino)-3-nitrophenyl)sulfonyl)-4-(2-((R)-4-((5-methoxy-6-((S)-3-methylmorpholino)pyridin-3-yl)methyl)-2-(o-tolyl)piperazin-1-yl)-7-azaspiro[3.5]nonan-7-yl)-2-((5aS,9aR)-6,7,9,9a-tetrahydro-1H-pyrano[3,4-b]pyrrolo[3′,2′:5,6]pyrido[3,2-e][1,4]oxazin-5(5aH)-yl)benzamide], 1.7 nM.
Consider `COc1cc(CN2CCN(C3CC4(CCN(c5ccc(C(=O)NS(=O)(=O)c6ccc(NCC7CCC(C)(O)CC7)c([N+](=O)[O-])c6)c(N6c7cc8cc[nH]c8nc7O[C@H]7COCC[C@@H]76)c5)CC4)C3)[C@H](c3ccccc3C)C2)cnc1N1CCOC[C@H]1C` (stereo partly drawn) [Example 139, 2-[(3R,8S)-2,5-dioxa-9,15,17-triazatetracyclo[8.7.0.0^{3,8}.0^{12,16}]heptadeca-1(10),11,13,16-tetraen-9-yl]-4-{2-[(2R)-4-({5-methoxy-6-[(3R)-3-methylmorpholin-4-yl]pyridin-3-yl}methyl)-2-(2-methylphenyl)piperazin-1-yl]-7-azaspiro[3.5]nonan-7-yl}-N-[3-nitro-4-({[(1r,4r)-4-hydroxy-4-methylcyclohexyl]methyl}amino)benzenesulfonyl]benzamide], for which the IC50 turned out to be 3.5 nM.
As for `COc1cc(CN2CCN([C@@H]3CC4(CCN(c5ccc(C(=O)NS(=O)(=O)c6ccc(NCC7CCC(C)(O)CC7)c([N+](=O)[O-])c6)c(N6c7cc8cc[nH]c8nc7O[C@H]7COCC[C@@H]76)c5)CC4)[C@@H]3C)[C@H](c3ccccc3C)C2)cnc1N1CCOCC1` (stereo partly drawn) [Example 140, 2-[(3R,8S)-2,5-dioxa-9,15,17-triazatetracyclo[8.7.0.0^{3,8}.0^{12,16}]heptadeca-1(10),11,13,16-tetraen-9-yl]-4-[(1S,2R)-2-[(2R)-4-{[5-methoxy-6-(morpholin-4-yl)pyridin-3-yl]methyl}-2-(2-methylphenyl)piperazin-1-yl]-1-methyl-7-azaspiro[3.5]nonan-7-yl]-N-[3-nitro-4-({[(1r,4r)-4-hydroxy-4-methylcyclohexyl]methyl}amino)benzenesulfonyl]benzamide], the IC50 came out at 6.4 nM.
The result for `COc1cc(CN2CCN([C@H]3CC4(CCN(c5ccc(C(=O)NS(=O)(=O)c6ccc(NCC7CCC(C)(O)CC7)c([N+](=O)[O-])c6)c(N6c7cc8cc[nH]c8nc7O[C@H]7COCC[C@@H]76)c5)CC4)[C@@H]3C)[C@H](c3ccccc3C)C2)cnc1N1CCOCC1` (stereo partly drawn) [Example 141, 2-[(3R,8S)-2,5-dioxa-9,15,17-triazatetracyclo[8.7.0.0^{3,8}.0^{12,16}]heptadeca-1(10),11,13,16-tetraen-9-yl]-4-[(1S,2S)-2-[(2R)-4-{[5-methoxy-6-(morpholin-4-yl)pyridin-3-yl]methyl}-2-(2-methylphenyl)piperazin-1-yl]-1-methyl-7-azaspiro[3.5]nonan-7-yl]-N-[3-nitro-4-({[(1r,4r)-4-hydroxy-4-methylcyclohexyl]methyl}amino)benzenesulfonyl]benzamide] reads 35.9 nM.
